In patent publication US20230140972A1, “GLYCEROL GLUCOSIDE-BASED COMPOUND AND COMPOSITION COMPRISING SAME FOR ULTRAVIOLET LIGHT SHIELD OR ANTI-INFLAMMATION” (ATHENA CO., LTD., priority 2020, published 2023):
Where “and” joins values, the source holds several entries; their conditions need not be identical. Equal entries are not always repeated.

Legend:
Type in all cases: cell-based, mouse
RAW264.7 cells = test: Cell viability measurement using MTT assay; settings: vs untreated group
Method: In order to evaluate a cell viability of the glycerol glucoside-based compound sample (EPS-S), an MTT assay was performed.
Specifically, subcultured RAW264.7 cells and HDF cells were aliquoted into a 96-well plate at 1×10^5, respectively, and cultured for 24 hours at 37° C. in an incubator containing 5% carbon dioxide, and then, a culture media was replaced with a serum-free media. Then, each sample was treated onto each cell by concentration. After culturing for 24 hours, an MTT solution was put into each well, reacted for 2 hours under light blocking, a supernatant was removed, a formed formazan was completely dissolved in DMSO, and an absorbance was measured at 540 nm with a microplate reader. In such a case, SDS was used as a positive control group. The test result value was calculated as in Equation 1 below and expressed as the cell viability compared to an untreated group, and was expressed as a mean±standard deviation.

[1] = test system: COX-2 mRNA in RAW264.7 cells; test: COX-2 mRNA expression analysis (RT-qPCR); settings: LPS 100 ng/mL
Method: An RT-qPCR was performed to evaluate an mRNA expression inhibition ability of COX-2 and iNOS of the glycerol glucoside-based compound sample (EPS-S).
Specifically, subcultured RAW264.7 cells were aliquoted into a 60 mm dish at 1.5×10^6 cells, and cultured at 37° C. in an incubator containing 5% carbon dioxide for 24 hours, and then a culture media was replaced with a serum-free media. Then, each sample was diluted by concentration and treated onto the cells with LPS (final 100 ng/mL). After culturing for 24 hours, cells were recovered, RNA was extracted, and cDNA was synthesized. For cDNA, qPCR was performed after mixing Real-time PCR Master Mix with TaqMan probes of each of COX-2 and iNOS. Dexamethasone was used as a positive control group. The test was conducted once, and the mRNA expression inhibition rate was obtained by analyzing the result by the ΔΔCt method, and then substituted into Equation 6 below to obtain the mRNA expression inhibition rate of COX-2 and iNOS of the treated sample group compared to the negative control group.

[2] = test system: NO2 production in LPS-treated RAW264.7 cells; test: Nitric oxide (NO2) production amount and inhibition, non-enzymatic method; settings: LPS 1 μg/mL, 24 h
Method: An NO assay was performed to evaluate an amount of nitric oxide (NO2) production and a production inhibition ability of the glycerol glucoside-based compound sample (EPS-S).
Specifically, subcultured RAW264.7 cells were aliquoted into a 96-well plate at 1×10^5 cells/well, and cultured at 37° C. in an incubator containing 5% carbon dioxide for 24 hours, and then a culture media was replaced with a serum-free media. […] Dexamethasone was used as a positive control group.

[3] = test system: total NO production in LPS-treated RAW264.7 cells; test: Nitric oxide (total NO) production and inhibition, enzymatic method; settings: LPS 1 μg/mL
Method: An NO assay was performed to evaluate an amount of nitric oxide (total NO) production and a production inhibition rate of the glycerol glucoside-based compound sample (EPS-S).
Specifically, subcultured RAW264.7 cells were aliquoted into a 96-well plate at 1×10^5 cells/well, and cultured at 37° C. in an incubator containing 5% carbon dioxide for 24 hours, and then a culture media was replaced with a serum-free media. Then, each sample is diluted by concentration and treated onto the cells with LPS (final 1 μg/mL). After culturing for 24 hours, a cell culture medium was treated with nitrate reductase, enzyme cofactor and enhancer to react. A Griess reagent was added and an absorbance was measured at 540 nm with a microplate reader. A total NO production was obtained by substituting the absorbance into a standard nitric oxide calibration curve, and a total NO production inhibition rate (%) was analyzed through Equation 2 and expressed as a mean±standard deviation. Dexamethasone was used as a positive control group.

p-IKK = test: Western blot of p-IKK protein expression; settings: RAW264.7 cells, LPS, 15 minutes, 100 ppm; untreated = 100, negative control 1001.95
Method: (§1) A western blot was performed as follows to observe p-IKK, p-IκB and p-NF-κB protein expression abilities of the glycerol glucoside-based compound sample (EPS-S).
(§2) Specifically, the subcultured mouse-derived macrophage line, RAW264.7 cells, were aliquoted in a 60 mm dish at 1.5×10^6 cells, and cultured for 24 hours at 37° C. in an incubator containing 5% carbon dioxide, and then a culture media was replaced with a serum-free media. Then, the glycerol glucoside-based compound sample (EPS-S) was diluted by concentration and treated onto the cells with LPS (final 1 μg/mL). After culturing for 15 minutes, protein was lysed (lysis) to recover cytoplasmic and nuclear extracts, and proteins were separated by size through SDS-PAGE. After transferring the protein to a membrane through a transfer, a primary antibody was attached thereto and reacted at 4° C. overnight. After the primary reaction, a secondary antibody was attached thereto, and reacted at room temperature for 1 hour, an ECL solution was sprayed on the entire surface, and a band image was obtained through a bioimage analyzer. After obtaining a band intensity of each band through Image J, normalization was performed using β-acitn and substituted in Equation 7 below to obtain the expression rate of p-IKK, p-IκB and p-NF-κB proteins in the treated sample group compared to the untreated group.

p-IκB = test: Western blot of p-IκB protein expression; settings: RAW264.7 cells, LPS, 15 minutes, 100 ppm; untreated = 100, negative control 390.06
Method: as §1, §2

p-NF-κB = test: Western blot of p-NF-κB protein expression; settings: RAW264.7 cells, LPS, 15 minutes, 100 ppm; untreated = 100, negative control 222.25
Method: as §1, §2

[4] = 24 h, 20 μM, listed as dexamethasone
[5] = 24 h, 80 μM, listed as dexamethasone

SMILES: COCC(COC)OC1OC(CO)C(O)C(O)C1O (centres unmarked) [EPS-S]
- cell viability (RAW264.7 cells; 24 h, 1 ppm): 103.36% and 103.36 ± 0.88%
- cell viability (RAW264.7 cells; 24 h, 10 ppm): 104.47% and 104.47 ± 3.61%
- cell viability (RAW264.7 cells; 24 h, 100 ppm): 108.58% and 108.58 ± 1.99%
- cell viability (RAW264.7 cells; 24 h, 1,000 ppm): 113.79% and 113.79 ± 0.13%
- COX-2 mRNA expression inhibition rate ([1]; 24 h, 10 ppm): −9.09% and −9.09 ± 3.16%
- COX-2 mRNA expression inhibition rate ([1]; 24 h, 100 ppm): 74.44% and 74.44 ± 0.91%
- COX-2 mRNA expression inhibition rate ([1]; 24 h, 500 ppm): 76.43% and 76.43 ± 1.11%
- COX-2 mRNA expression inhibition rate ([1]; 24 h, 1,000 ppm): 83.19% and 83.19 ± 1.30%
- NO2 production amount ([2]; 10 ppm): 23.14 ± 0.25 µM
- NO2 production amount ([2]; 100 ppm): 23.14 µM and 22.57 ± 0.16 µM
- NO2 production amount ([2]; 500 ppm (text b168)): 22.57 µM
- NO2 production amount ([2]; 1000 ppm): 20.90 µM and 20.90 ± 0.50 µM
- inhibition at 100 ppm ([2]; Mus musculus, RAW264.7, 100 ppm, read-out: NO2 production inhibition rate): 9.47%
- inhibition at 500 ppm ([2]; Mus musculus, RAW264.7, 500 ppm, read-out: NO2 production inhibition rate): 13.2%
- inhibition at 1000 ppm ([2]; Mus musculus, RAW264.7, 1000 ppm, read-out: NO2 production inhibition rate): 24%
- Total NO production ([3]; 24 h, 100 ppm): 62.07 µM and 62.07 ± 0.48 µM
- Total NO production inhibition rate ([3]; 24 h, 100 ppm): −3.85 ± 2.22%
- Total NO production ([3]; 24 h, 500 ppm): 59.20 µM and 59.20 ± 0.86 µM
- Total NO production ([3]; 24 h, 1000 ppm): 53.38 µM and 53.38 ± 0.18 µM
- inhibition at 10 ppm ([3]; Mus musculus, RAW264.7, 24 h, 10 ppm, read-out: Total NO production inhibition rate): -11.3 ± 1.24%
- inhibition at 500 ppm ([3]; Mus musculus, RAW264.7, 24 h, 500 ppm (text b176), read-out: Total NO production inhibition rate): -3.84%
- inhibition at 1000 ppm ([3]; Mus musculus, RAW264.7, 24 h, 1000 ppm, read-out: Total NO production inhibition rate): 11.2%
- p-IKK protein expression rate (p-IKK): 514.98%
- p-IκB protein expression rate (p-IκB): 203.52%
- p-NF-κB protein expression rate (p-NF-κB): 185.30%

SMILES: C[C@@H]1C[C@H]2[C@@H]3CCC4=CC(=O)C=C[C@]4(C)[C@@]3(F)[C@@H](O)C[C@]2(C)[C@@]1(O)C(=O)CO [Dexamethasone]
- COX-2 mRNA expression inhibition rate ([1]; 24 h, 1 μM): 22.64 ± 1.27%
- COX-2 mRNA expression inhibition rate ([1]; 24 h, 1 μM, listed as dexamethasone): 22.64%
- COX-2 mRNA expression inhibition rate ([1]; 24 h, 5 μM): 71.72 ± 0.69%
- COX-2 mRNA expression inhibition rate ([1]; 24 h, 5 μM, listed as dexamethasone): 71.72%
- COX-2 mRNA expression inhibition rate ([1]; 24 h, 20 μM): 81.78 ± 0.60%
- COX-2 mRNA expression inhibition rate [1, 4]: 81.78%
- COX-2 mRNA expression inhibition rate ([1]; 24 h, 80 μM): 84.23 ± 0.41%
- COX-2 mRNA expression inhibition rate [1, 5]: 84.23%
- COX-2 mRNA expression inhibition rate ([1]; 24 h, 10 Mm (table head; text 10 μM)): 76.82 ± 1.73%
- COX-2 mRNA expression inhibition rate ([1]; 24 h, 10 Mm (table head; text 10 μM), listed as dexamethasone): 76.82%
- NO2 production amount ([2]; 10 μM): 21.29 ± 0.59 µM
- NO2 production amount ([2]; 10 μM, listed as dexamethasone): 21.29 µM
- NO2 production amount ([2]; 20 μM): 20.79 ± 0.12 µM
- NO2 production amount ([2]; 20 μM, listed as dexamethasone): 20.79 µM
- NO2 production amount ([2]; 80 μM): 19.62 ± 0.50 µM
- NO2 production amount ([2]; 80 μM, listed as dexamethasone): 19.62 µM
- inhibition at 10 µM ([2]; Mus musculus, RAW264.7, 10 μM, read-out: NO2 production inhibition rate): 21.5%
- inhibition at 20 µM ([2]; Mus musculus, RAW264.7, 20 μM, read-out: NO2 production inhibition rate): 24.7%
- inhibition at 80 µM ([2]; Mus musculus, RAW264.7, 80 μM, read-out: NO2 production inhibition rate): 32.3%
- Total NO production ([3]; 24 h, 10 μM): 41.15 ± 0.43 µM
- Total NO production ([3]; 24 h, 10 μM, listed as dexamethasone): 41.15 µM
- Total NO production ([3]; 24 h, 20 μM): 38.84 ± 1.24 µM
- Total NO production [3, 4]: 38.84 µM
- Total NO production ([3]; 24 h, 80 μM): 37.82 ± 0.75 µM
- Total NO production [3, 5]: 37.82 µM
- inhibition at 10 µM ([3]; Mus musculus, RAW264.7, 24 h, 10 μM, read-out: Total NO production inhibition rate): 42.8%
- inhibition at 20 µM ([3]; Mus musculus, RAW264.7, 24 h, 20 μM, read-out: Total NO production inhibition rate): 48.7%
- inhibition at 80 µM ([3]; Mus musculus, RAW264.7, 24 h, 80 μM, read-out: Total NO production inhibition rate): 51.4%
